Experimental data: patent US20030109571A1, “Thromboxane ligands without blood clotting side effects” (ALLERGAN SALES, INC., priority 1993, published 2003)
Entries after “also recorded” stand apart in the source; their conditions may differ. Like-named read-outs stand apart in the source and are kept apart here. Marks after values point to notes of the source that are not given here.

How the values were obtained:
[1] = biological target: FP prostanoid receptor; assay: FP-activity: contraction of the isolated feline iris sphincter; details: concentration producing 50% of maximal response; read-out: EC50 at FP (Cat Iris)
Protocol: (§1) Activity at different prostanoid receptors was measured in vitro in isolated smooth muscle preparations. FP-activity was measured as contraction of the isolated feline iris sphincter. EP1-activity was measured as contraction of the longitudinal smooth muscle of the isolated guinea pig ileum. EP3-activity was measured as inhibition of the twitch response induced by electrical field stimulation in the isolated guinea pig was deferens and as contraction of the longitudinal smooth muscle of the isolated chick ileum. TP-vasoconstrictor activity was measured as contraction of rings of the isolated rat thoracic aorta. Effects on platelets from healthy human donors were measured by incubating platelet-rich plasma with the compounds described herein. Inhibition of aggregation was determined by the ability of the compounds described herein to inhibit platelet aggregation in platelet-rich plasma induced by 20 μM ADP.

[2] = biological target: T1, TXA2 receptor (Homo sapiens, UniProt P21731); details: in words; cited from earlier work
T1 sequence (P21731 1-343): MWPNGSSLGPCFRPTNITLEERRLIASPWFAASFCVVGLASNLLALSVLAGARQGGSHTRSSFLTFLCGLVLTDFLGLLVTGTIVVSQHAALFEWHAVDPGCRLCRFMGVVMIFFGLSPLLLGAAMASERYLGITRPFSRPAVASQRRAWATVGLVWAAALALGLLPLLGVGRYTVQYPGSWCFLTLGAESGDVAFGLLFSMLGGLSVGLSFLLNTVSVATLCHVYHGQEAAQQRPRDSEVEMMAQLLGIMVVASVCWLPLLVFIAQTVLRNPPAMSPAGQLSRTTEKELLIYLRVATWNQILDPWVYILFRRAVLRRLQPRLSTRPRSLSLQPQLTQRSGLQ

[3] = biological target: T2, TP-receptor (vascular, TPVASC) (Rattus norvegicus, UniProt P34978); assay: TP-vasoconstrictor activity: contraction of rings of isolated rat thoracic aorta, without or with SQ29,548; details: for Activity in contracting vascular smooth muscle: in words
T2 construct: measured in vitro in isolated smooth muscle preparations; from tissue; host or cells: rings of isolated rat thoracic aorta
T2 sequence (P34978 1-341): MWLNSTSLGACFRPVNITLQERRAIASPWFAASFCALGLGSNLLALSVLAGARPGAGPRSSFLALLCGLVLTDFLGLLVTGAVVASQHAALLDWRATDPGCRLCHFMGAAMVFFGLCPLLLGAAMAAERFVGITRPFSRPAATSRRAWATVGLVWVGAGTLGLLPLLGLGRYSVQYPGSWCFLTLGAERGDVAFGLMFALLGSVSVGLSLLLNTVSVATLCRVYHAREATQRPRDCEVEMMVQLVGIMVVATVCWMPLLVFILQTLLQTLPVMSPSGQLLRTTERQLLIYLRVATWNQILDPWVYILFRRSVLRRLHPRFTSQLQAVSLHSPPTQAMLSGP
Protocol: as §1
In addition, inhibition by the thromboxane A2-receptor antagonist SQ29,548 ([1S-[1α, 2α (5Z), 3α, 4α]]-7-[3-[[2-[phenylamino)carbonyl]-hydrazino]methyl]-7-oxabicyclo[2.2.1] hept-2-yl]-5-heptenoic acid) of vasoconstrictor activity was investigated.

[4] = tested on: vasculature; details: in words; cited from earlier work
[5] = tested on: EP3 prostanoid receptor; assay: EP3-activity: inhibition of electrically induced twitch response in isolated guinea pig vas deferens; details: read-out: EC50 at EP3(c) (Guinea Pig vas deferens)
Protocol: as §1

[6] = Dog intraocular pressure, topical dosing, applanation pneumatonometry; type: in vivo; details: dog, dose 0.1%
Protocol: The compounds were prepared at the said concentrations in a vehicle comprising 0.1% polysorbate 80 and 10 mM TRIS base. Dogs and monkeys were treated by administering 25 ul to the ocular surface, the contralateral eye received vehicle as a control. Intraocular pressure was measured by applanation pneumatonometry. Experiments were performed with dogs and monkeys. Dog intraocular pressure was measured immediately before drug administration and at 2, 4 and 6 hour thereafter. Additional studies in monkeys were performed over a 5 day period and drug was administered at times 0, 6, 24, 30, 48, 54, 72, 78, and 96 hours. Monkey intraocular pressure was recorded just before drug administration on each day and at the 2 and 4 hour time intervals between dosing.

[7] = tested on: Platelets (Human); assay: Platelet aggregation in platelet-rich plasma from healthy human donors; type: cell-based; details: for EC50: Table 1, read-out: EC50 Platelets (Human) Aggregation; for Ability to cause platelet aggregation: in words
Protocol: as §1

[8] = tested on: platelets; details: in words; cited from earlier work
[9] = in vivo, iv; cited from earlier work
[10] = tested on: Platelets; assay: Effect of Example 4 pretreatment on agonist-induced platelet aggregation; type: cell-based, human
Protocol: as §1, with “Inhibition of aggregation was determined by the ability of the compounds described herein to inhibit platelet aggregation in platelet-rich plasma induced by 20 μM ADP.” left out

[11] = tested on: isolated perfused coronary arteries; details: cat, cited from earlier work
[12] = tested on: EP3 prostanoid receptor; assay: EP3-activity: contraction of longitudinal smooth muscle of isolated chick ileum; details: read-out: EC50 at EP3(d) (Chick Ileum)
Protocol: as §1

[13] = tested on: rabbit PRP; details: in words; cited from earlier work
[14] = tested on: rat aorta; details: cited from earlier work
[15] = biological target: T3, TX synthetase (Homo sapiens, UniProt P24557); details: in words; cited from earlier work
T3 sequence (P24557 1-533): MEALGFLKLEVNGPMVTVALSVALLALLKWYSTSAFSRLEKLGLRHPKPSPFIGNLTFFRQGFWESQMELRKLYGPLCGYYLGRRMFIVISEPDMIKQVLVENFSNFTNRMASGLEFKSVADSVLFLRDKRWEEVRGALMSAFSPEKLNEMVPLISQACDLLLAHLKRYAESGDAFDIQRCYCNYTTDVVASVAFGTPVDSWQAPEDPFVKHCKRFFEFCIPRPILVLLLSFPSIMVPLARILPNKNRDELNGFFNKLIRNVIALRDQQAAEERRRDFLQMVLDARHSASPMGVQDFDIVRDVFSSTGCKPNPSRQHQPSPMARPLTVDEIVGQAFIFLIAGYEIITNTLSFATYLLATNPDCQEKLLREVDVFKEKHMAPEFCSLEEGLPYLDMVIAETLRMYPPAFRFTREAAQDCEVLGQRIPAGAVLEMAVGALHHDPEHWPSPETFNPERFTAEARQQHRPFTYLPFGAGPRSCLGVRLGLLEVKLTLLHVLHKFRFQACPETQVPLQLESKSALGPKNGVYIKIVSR

[16] = tested on: HPRP; details: in words; cited from earlier work
[17] = Table 1, read-out: EC50 at TPVASC (Rat Aorta)

CCCCCC(O)/C=C/C1C2CC(OC(=O)O2)C1C/C=C\CCCC(=O)NC(C)C (stereo not drawn) [Example 17, 7-[6-carboisopropylamino-2-cis-hexenyl]-6-[3α-hydroxy-1-trans-octenyl]-3-oxo-2,4-dioxobicyclo [3.2.1] octane]
EC50 [1]: 3.02 µM | TXA2-like activity [2]: Mixture of C-15 epimers has stong TXA2-like activity^14 | EC50 [3, 17]: 0.324 µM

CCCCC[C@H](O)/C=C/[C@@H]1[C@@H](C/C=C\CCCCO)[C@@H]2C[C@H]1OC(=O)O2 [Example 4]
Action on the vasculature [4]: Potent TXA2-like agonist | EC50 [5]: 2.93 µM | Intraocular pressure change ([6]; 2 HR after dosing): −6.7** | Intraocular pressure change ([6]; 4 HR after dosing): −7.7** | Intraocular pressure change ([6]; 6 HR after dosing): −8.5** | EC50 [7]: > 10 µM | Ability to cause platelet aggregation [7]: no or minimal ability; also recorded: neither causes platelet aggregation | EC50 [1]: 0.485 µM | Action on platelets [8]: profound TXA antagonist | Ischemic damage in the heart during coronary insufficiency [9]: Exacerbated ischemic damage | Platelet aggregation after Example 4 pretreatment ([10]; agonist 2 μM ADP, 10^-6 M Example 4): 73.1 ± 14.3 % of max response | Platelet aggregation after Example 4 pretreatment ([10]; agonist 2 μM ADP, 10^-7 M Example 4): 68.3 ± 12.9 % of max response | Platelet aggregation after Example 4 pretreatment ([10]; agonist 20 μM ADP, 10^-6 M Example 4): 97.6 ± 1.8 % of max response | Platelet aggregation after Example 4 pretreatment ([10]; agonist 20 μM ADP, 10^-7 M Example 4): 99.9 ± 1.4 % of max response | Platelet aggregation after Example 4 pretreatment ([10]; agonist 800 μM Arachidonic Acid, 10^-6 M Example 4): 98.8 ± 1.1 % of max response | Platelet aggregation after Example 4 pretreatment ([10]; agonist 800 μM Arachidonic Acid, 10^-7 M Example 4): 98.0 ± 1.8 % of max response | Platelet aggregation after Example 4 pretreatment ([10]; agonist 3.3 × 10-7 U46619, 10^-6 M Example 4): 94.2 ± 2.8 % of max response | Platelet aggregation after Example 4 pretreatment ([10]; agonist 3.3 × 10-7 U46619, 10^-7 M Example 4): 93.8 ± 2.3 % of max response | Platelet aggregation after Example 4 pretreatment ([10]; agonist 3.3 × 10-8 Example 7, 10^-6 M Example 4): −7.3 + 0.7 % of max response | Platelet aggregation after Example 4 pretreatment ([10]; agonist 3.3 × 10-8 Example 7, 10^-7 M Example 4): −9.0 + 1.6 % of max response | Platelet aggregation after Example 4 pretreatment ([10]; agonist 10-6 Example 7, 10^-6 M Example 4): 96.5 ± 0.9 % of max response | Platelet aggregation after Example 4 pretreatment ([10]; agonist 10-6 Example 7, 10^-7 M Example 4): 95.3 ± 0.9 % of max response | Platelet aggregation after Example 4 pretreatment ([10]; agonist 10-6 U46619, 10^-6 M Example 4): 96.0 ± 0.8 % of max response | Platelet aggregation after Example 4 pretreatment ([10]; agonist 10-6 U46619, 10^-7 M Example 4): 94.6 ± 2.6 % of max response | Platelet aggregation after Example 4 pretreatment ([10]; agonist 10-7 Example 7, 10^-6 M Example 4): 99.5 ± 1.7 % of max response | Platelet aggregation after Example 4 pretreatment ([10]; agonist 10-7 Example 7, 10^-7 M Example 4): 97.8 ± 1.7 % of max response | Platelet aggregation after Example 4 pretreatment ([10]; agonist 10-7 U46619, 10^-6 M Example 4): −5.6 + 0.9 % of max response | Platelet aggregation after Example 4 pretreatment ([10]; agonist 10-7 U46619, 10^-7 M Example 4): −5.5 + 1.1 % of max response | Platelet aggregation after Example 4 pretreatment ([10]; agonist 10-8 Example 7, 10^-6 M Example 4): −8.0 + 2.9 % of max response | Platelet aggregation after Example 4 pretreatment ([10]; agonist 10-8 Example 7, 10^-7 M Example 4): −8.4 + 0.9 % of max response | Inhibition of ADP or arachidonic acid induced platelet aggregation ([10]; in words): did not inhibit | EC50 [3, 17]: 0.001 µM | EC50 ([3]; absence of SQ29,548, read-out: EC50 at TPVASC-receptor, rat aorta): 0.0009 µM | Activity in contracting vascular smooth muscle [3]: pronounced activity | EC50 ([3]; presence of SQ29,548 (1 uM), read-out: EC50 at TPVASC-receptor, rat aorta): 0.454 µM | Constriction of isolated perfused coronary arteries ([11]; in words): profound constric- tion | Constriction of isolated perfused coronary arteries, potency relative to TXB2 [11]: 10^1 × TXB2 | EC50 [12]: > 10 µM

CCCCCC(O)/C=C/C1C2CC(OC(=O)O2)C1C/C=C\CCCC(N)=O (stereo not drawn) [Example 15, 7-[6-carboamino-2-cis-hexenyl]-6-[3α-hydroxy-1-trans-octenyl]-3-oxo-2,4-dioxobicyclo [3.2.1] octane]
Aggregation of rabbit PRP [13]: did not aggre- | Antagonism of the aggregatory effect of TXA2 [13]: did not | Contraction of rat aortic strips relative to TXA2 [14]: 0.02 × TXA2 | EC50 [7]: 3.11 µM | Ability to cause platelet aggregation [7]: no or minimal ability | EC50 [1]: 0.387 µM | Effect on TX (TXA2) synthetase [15]: did not | EC50 [3, 17]: 0.058 µM | Activity in contracting vascular smooth muscle [3]: pronounced activity

CCCCC[C@H](O)/C=C/C1C[C@H]2CC(O2)[C@@H]1C/C=C\CCCC(=O)O (stereo partly drawn) [Example 2]
Inhibition of PGH2-induced aggregation of HPRP [16]: Inhibitor of PGH2-induced ag- gregation of HPRP^1
